Our source for the KM values is publication PMC7251641 (Cell, 2010).

This experiment addresses INO80 (Saccharomyces cerevisiae, UniProt P53115). Kind of experiment: real-time fluorescent phosphate-release ATPase assay. The class given is biochemical. Conditions: 0.1 nM INO80; with or without 15 nM nucleosomes or DNA; 23 °C.

Molecules are shown by their SMILES.

For the molecule `Nc1ncnc2c1ncn2[C@@H]1O[C@H](COP(=O)(O)OP(=O)(O)OP(=O)(O)O)[C@@H](O)[C@H]1O` [ATP], the KM result is “KM for the ATPase of SWR1, INO80, and SWI/SNF in the presence or absence”.
